# Measured values reported in patent US10201610B2, “Interference peptides and use thereof” (The University of Western Australia, priority 2014, dated 2019).
# Ends that are not written are not given here.
# Tests used:
# [1] = test system: SUM149PT cells overexpressing the EN1 cDNA (SUM149PT-EN1); assay: Cell Titer Glo cell viability assay in SUM149PT cells overexpressing the EN1 cDNA; format: cell-based, human; details: iPep624 72 hours
# Protocol: In the neural system it has been proposed that EN1 protects neurons from mitochondrial complex I insults. Likewise, the inventors investigated whether EN1 could play a similar role in the basal-like breast cancer cell lines. The EN1 cDNA was overexpressed in SUM149PT cells using a lentiviral vector, and the transduced cells were treated with increasing concentrations of rotenone, a mitochondrial complex I toxin, and taxol, a […].
# Plasmids expressing the EN1 cDNA (Genecopoeia, vector EX-T1021-Lv07) or EN1 shRNAs (Open Biosystems, pLKO-EN1) were transfected with Gagpol-, VSVG-, and RSV-REV-coding plasmids in HEK 293T cells using Lipofectamine and Plus Reagent cationic lipids (Invitrogen, Carlsbad, Calif.) and transduction of breast cells was performed as described in Beltran, A. S. et al. Breast Cancer Res 13, R94 (2011).
# (§1) All peptides were synthetized at the UNC High-Throughput Peptide Synthesis and Array Facility at UNC. Taxol, Rotenone and Halofuginone (Sigma-Aldrich, St Louis, Mo.) were dissolved in DMSO. A total of […] or 1×10^3 breast cells for peptide and drug treatment respectively, were seeded in 96-well plates. Cells were exposed for 8 hours to the peptide and 48 to 72 hours for drug treatment. The cell viability after peptide/drug treatment was assayed with the Cell Titer Glo (CTG) assay (Promega, Madison, Wis., USA).
# HUMEC = assay: Cell Titer Glo cell viability assay, breast cancer cell line panel; format: cell-based; details: 8 hours
# Protocol: (§2) To test the specificity of the EN1-iPep in cell lines expressing EN1, the inventors delivered the iPeps into a panel of breast cancer cell lines expressing different amounts of EN1.
# as §1
# MCF7 = assay: as above; format: cell-based; details: MCF7, 8 hours
# Protocol: as §2, §1
# MDA-MB-231 = assay: as above; format: cell-based; details: MDA-MB-231, 8 hours
# Protocol: as §2, §1
# SUM102 = assay: as above; format: cell-based; details: SUM102, 8 hours
# Protocol: as §2, §1
# SUM159PT = assay: as above; format: cell-based; details: 8 hours
# Protocol: as §2, §1
# SUM229 = assay: as above; format: cell-based; details: SUM229, 8 hours
# Protocol: as §2, §1
# [2] = test system: caspase 3 activity in SUM149PT cells; assay: Caspase-3 colorimetric assay in SUM149PT cells; format: cell-based, human; details: 8 hours, compared with non-treated or iPep624ΔHEX-treated cells
# Text: The EN1-iPeps and iPep controls were first tested in SUM149PT cells carrying high EN1 expression. Cells were first treated with a full-length 29-mer peptide (iPep624) comprising the N-terminal, less conserved amino acid sequences, the hexamotif, and the C-terminal tail. As a control, the inventors generated the iPep624ΔHEX in which the hexamotif was mutated from the wild type (wt) WPAWVY (SEQ ID NO: 13) to the GAAGAG (SEQ ID NO: 15) sequence. These mutations were expected to dramatically abolish the activity of the peptide. Both peptides were included in the culture medium of the basal cancer cells in increasing (0-100 μM) concentrations and incubated for 8 hours at 37° C. Treated cells were first analyzed using the Cell Titer Glo assay, which monitors metabolic viability. […] This calculated value of IC50 is in the range of concentrations observed with other peptides delivered with CPPs.
# Detection of apoptosis was performed with a Caspase-3 colorimetric assay (Sigma-Aldrich, St Louis, Mo.) according to the manufacturer's instructions.
# [3] = target: T1, Glutamyl-Prolyl tRNA synthetase (EPRS) (Homo sapiens, UniProt P07814); assay: Affinity capture immunoprecipitation with biotinylated iPeps, EPRS detection; format: binding; details: biotinylated iPep as bait, versus control peptide iPep624ΔHEX
# T1 construct: endogenous in cells; host or cells: SUM149PT total protein extract
# Text: To investigate the binding partners of the iPeps in cancer cells, the inventors carried out affinity capture immunoprecipitation experiments using the biotinylated active iPep624 as bait, and the iPep624ΔHEX as negative control. They used total protein extracts from SUM149PT cells to capture endogenous proteins able to bind these peptides in vitro. Elutes were loaded in a 1D-SDS PAGE gel to visualize the enrichment of individual proteins. […] In addition, overexpression of EN1 cDNA into two different breast cell lines confirmed the interaction of the full length EN1 with the endogenous EPRS inside the cells (FIG. 6c). […]
# The iPep624 and iPep624ΔHEX were coupled to a C-terminal biotin and immobilized in streptavidin-coated beads. […] Detection was performed with ECL Detection System (GE Healthcare) and quantitated using Image J v1.46 (ImageJ, NCBI).
# Proteins were eluted from the streptavidin beads coated with biotinylated iPep624 or iPep624ΔHEX, resuspended with SDS PAGE sample buffer and applied to SDS-PAGE (10% acrylamide; FIG. 10). Gels were stained with Coomassie brilliant blue and select bands unique to the EN1 immunoprecipitates were excised, digested with trypsin, and the peptides were extracted and analyzed using a MALDI-TOF/TOF mass spectrometer (AB Sciex 4800 Plus). […]
# T1 sequence (P07814 whole entry): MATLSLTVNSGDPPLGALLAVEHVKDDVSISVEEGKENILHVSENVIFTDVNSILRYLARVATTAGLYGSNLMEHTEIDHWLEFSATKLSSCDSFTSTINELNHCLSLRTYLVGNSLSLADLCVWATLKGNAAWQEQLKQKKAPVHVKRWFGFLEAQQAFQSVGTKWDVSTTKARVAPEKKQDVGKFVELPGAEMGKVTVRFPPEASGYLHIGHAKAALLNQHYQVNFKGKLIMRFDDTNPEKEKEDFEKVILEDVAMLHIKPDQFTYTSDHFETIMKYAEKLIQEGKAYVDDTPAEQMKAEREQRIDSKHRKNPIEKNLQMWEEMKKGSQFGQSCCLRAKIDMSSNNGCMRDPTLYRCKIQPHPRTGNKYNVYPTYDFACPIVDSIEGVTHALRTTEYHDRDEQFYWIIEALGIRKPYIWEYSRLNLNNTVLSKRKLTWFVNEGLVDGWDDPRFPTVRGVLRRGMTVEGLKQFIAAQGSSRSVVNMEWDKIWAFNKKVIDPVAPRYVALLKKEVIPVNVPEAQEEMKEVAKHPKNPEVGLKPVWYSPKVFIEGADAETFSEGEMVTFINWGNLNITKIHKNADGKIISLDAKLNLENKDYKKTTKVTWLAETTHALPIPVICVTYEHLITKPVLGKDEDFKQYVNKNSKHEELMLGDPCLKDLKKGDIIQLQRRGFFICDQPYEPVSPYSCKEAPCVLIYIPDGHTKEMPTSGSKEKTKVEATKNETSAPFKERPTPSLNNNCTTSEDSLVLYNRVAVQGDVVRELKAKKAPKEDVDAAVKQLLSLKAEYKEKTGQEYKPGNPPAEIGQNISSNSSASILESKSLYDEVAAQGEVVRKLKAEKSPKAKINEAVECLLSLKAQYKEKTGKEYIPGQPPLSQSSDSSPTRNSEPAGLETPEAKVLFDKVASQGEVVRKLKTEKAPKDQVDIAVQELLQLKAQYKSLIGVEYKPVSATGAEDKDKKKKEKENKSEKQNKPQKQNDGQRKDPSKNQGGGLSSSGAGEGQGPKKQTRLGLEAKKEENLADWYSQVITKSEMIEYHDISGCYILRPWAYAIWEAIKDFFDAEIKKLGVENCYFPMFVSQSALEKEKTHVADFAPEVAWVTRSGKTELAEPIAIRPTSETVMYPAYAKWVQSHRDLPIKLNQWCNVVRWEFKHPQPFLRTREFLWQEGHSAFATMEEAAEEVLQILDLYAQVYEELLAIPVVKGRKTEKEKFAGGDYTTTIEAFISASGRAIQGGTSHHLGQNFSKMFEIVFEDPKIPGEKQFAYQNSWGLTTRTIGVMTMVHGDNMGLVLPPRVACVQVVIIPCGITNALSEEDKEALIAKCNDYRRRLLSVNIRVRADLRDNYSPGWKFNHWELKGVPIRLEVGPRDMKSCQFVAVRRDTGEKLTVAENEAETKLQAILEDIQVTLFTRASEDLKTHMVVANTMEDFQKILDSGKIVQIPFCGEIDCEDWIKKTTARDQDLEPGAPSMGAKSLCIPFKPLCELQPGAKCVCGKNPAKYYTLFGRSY
sequence,measurement,setting,value
KKKRKVTDSQQPLVWPAWVYCTRYSDRPS [iPep624],cell viability defect after ectopic transfection of the EN1 cDNA,[1],rescued
same,cell viability,HUMEC,no effect on cell viability
same,cell viability,MCF7,no effect on cell viability
same,cell viability,MDA-MB-231,no effect on cell viability
same,cell viability,SUM102,decreased cell viability
same,cell viability,SUM159PT,decreased cell viability
same,cell viability,SUM229,decreased cell viability
same,caspase 3 activity,[2],significantly higher
same,binding of EPRS from SUM149PT extracts,[3],preferential binding interaction
